Results published in PubChem BioAssay (NCI).
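Protocol summary: plate cells (96-well), add compound at 5 concentrations, incubate 48 h, interpolate endpoints linearly. GI50 = concentration required for 50% inhibition of growth. TGI is the concentration that stops growth completely.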

Experiments:
Assay in all cases: DTP human tumour cell line panel, 48 h
UACC-257 melanoma = test system: UACC-257 melanoma
NCI-H23 lung = test system: NCI-H23 lung
CCRF-CEM leukemia = test system: CCRF-CEM leukemia
SNB-75 CNS = test system: SNB-75 CNS
SK-MEL-28 melanoma = test system: SK-MEL-28 melanoma
OVCAR-5 ovarian = test system: OVCAR-5 ovarian
HL-60(TB) leukemia = test system: HL-60(TB) leukemia
OVCAR-3 ovarian = test system: OVCAR-3 ovarian
MALME-3M melanoma = test system: MALME-3M melanoma
CAKI-1 renal = test system: CAKI-1 renal

SMILES | TGI (UACC-257 melanoma) [µM] | TGI (NCI-H23 lung) [µM] | TGI (CCRF-CEM leukemia) [µM] | TGI (SNB-75 CNS) [µM] | TGI (SK-MEL-28 melanoma) [µM] | TGI (OVCAR-5 ovarian) [µM] | TGI (HL-60(TB) leukemia) [µM] | TGI (OVCAR-3 ovarian) [µM] | TGI (MALME-3M melanoma) [µM] | TGI (CAKI-1 renal) [µM] | GI50 (UACC-257 melanoma) [µM] | GI50 (NCI-H23 lung) [µM] | GI50 (CCRF-CEM leukemia) [µM] | GI50 (SNB-75 CNS) [µM] | GI50 (SK-MEL-28 melanoma) [µM] | GI50 (OVCAR-5 ovarian) [µM] | GI50 (HL-60(TB) leukemia) [µM] | GI50 (OVCAR-3 ovarian) [µM] | GI50 (MALME-3M melanoma) [µM] | GI50 (CAKI-1 renal) [µM]
CC(=O)OC1C(O[C@H]2CC[C@]34O[C@]35CC[C@]3(C)C(C6(C)CC[C@@H](C(C)(C)O)O6)[C@@H](O)CC3(C)[C@@H]5CC(OC3OC(CO)C(O)C(O)C3O)C4C2(C)C)OCC(O)C1O (stereo not given in full) | > 100 | > 100 | > 31.6 | > 100 | > 100 | > 100 | > 53.3 | > 100 | > 100 | > 100 | – | – | – | – | – | – | – | – | – | –
C/C(CC(=O)Nc1ccc(NC(=O)C/C(C)=N\NC(N)=O)cc1)=N/NC(N)=O | > 100 | > 100 | > 100 | > 100 | > 100 | > 100 | > 100 | > 100 | > 100 | > 100 | – | – | – | – | – | – | – | – | – | –
CCc1nn2ncccc2c1-c1ccnc(NC2CC2)n1 | > 25 | > 25 | > 25 | > 25 | > 25 | > 25 | > 25 | > 25 | > 25 | > 25 | > 25 | > 25 | > 25 | > 25 | > 25 | > 25 | > 25 | > 25 | > 25 | > 22.1
